Reference: patent US6319952A, “Compositions and methods for reversibly increasing permeability of biomembranes” (D-Pharm Ltd., priority 1997, dated 2001)

Columns and labels:
[1] = system: blood-brain barrier (BBB); experiment: Effect of branched chain fatty acids on BBB permeability by qualitative Evan's Blue (EB) evaluation in rats; format: in vivo, rat (male Sprague-Dawley); conditions: intracarotid infusion
Method: Evaluation of Effect of Branched Fatty Acids on Blood-brain Barrier Permeability
The experiments were carried out on male Sprague-Dawley rats weighing 250-320 gr. They were anesthetized with Rampun-Imalgen. The right common carotid artery was exposed.
The test compounds were dissolved in 0.1M phosphate buffered physiological saline (pH=7.4) at the following test concentrations: 1.6; 8; 20; 40; 200 and 1000 μg/ml.
The test compound was infused into the right common carotid artery at a rate of 6 ml/min. for 30 s. The control rats were infused with buffer. Evan's Blue (EB) solution at a concentration of […] (2 g Evan's Blue, 0.9 g NaCl in 100 ml water) was injected intravenously 50 minutes prior to the termination of the experiment.
In the case of 45 min experiment, five minutes prior to the infusion of the tested material, 4 ml/kg body wt dose of Evans Blue solution was injected intravenously.
At the end of the experimental time period the animals were perfused with 100 ml of saline solution through the heart and decapitated. The degree of BBB opening, in terms of extravasation of Evan's Blue albumin, was graded on the basis of visual assessment of the degree of staining of the brain ato the method of Rapoport et al. (Rapoport et al., 1980, Amer. J. Physiol. 258, 421-431), and the results are presented in Tables 1 and 2.
The results presented are qualitative with four degrees of Evan's Blue extravasation according to Rapoport et al. Minus signs represents no staining and three plus signs represent maximal staining.

[2] = system: mice; experiment: Acute intravenous toxicity test in mice; format: in vivo; conditions: i.v.; for dose causing mortality: mice, three days
Method: An acute intravenous toxicity test was performed to study the toxicity of the branched fatty acids in mice. The study included mortality and behavioral observations during three days. The rate of mortality is represented in the Table 5. M 3/14 caused mortality at a dose of 175 mg/kg; M3/12 at a dose of 75 mg/kg and M 3/10 at a dose of 100 mg/kg. Death was observed ten minutes after i.v. injection. In sub-lethal doses no significant behavior changes were observed.

[3] = system: blood brain barrier; conditions: cited from earlier work
[4] = system: blood brain barrier; conditions: Sztriha and Betz; cited from earlier work
[5] = system: membrane; conditions: Perlman and Goldstein; cited from earlier work

CCCCCCCCCCC(CCC)C(=O)O (stereo not drawn) [M 3/10, 2-propyldodecanoic acid]
Visual EB ([1]; 625 μM, 45 min): ++
Mortality ([2]; 50 mg/kg, 10 mg/ml): 0/3
Mortality ([2]; 100 mg/kg, 10 mg/ml): 3/3
dose causing mortality [2]: 100 mg/kg

CCCCCCCCCCCCC(CCC)C(=O)O (stereo not drawn) [M 3/12, 2-propyltetradecanoic acid]
Visual EB ([1]; 125 μM, 180 min): ++
Mortality ([2]; 50 mg/kg, 2.5 mg/ml): 0/3
Mortality ([2]; 75 mg/kg, 2.5 mg/ml): 3/3
dose causing mortality [2]: 75 mg/kg

CCCCCCCCCCC(CCCCCCCCCC)C(=O)O [M 10/10, 2-decanyldodecanoic acid]
Visual EB ([1]; 625 μM, 45 min): ++

OC[C@@H](O)[C@@H](O)[C@H](O)[C@H](O)CO [Mannitol]
drug entry after barrier opening ([3]; osmotic modification, chemotherapy after barrier opening): enhanced drug entry to both brain-tumor and brain
complications of osmotic BBB modification ([3]; osmotic modification): clinical manifestation of stroke, seizures, immunological reaction and ocular toxicity
duration of BBB opening ([3]; osmotic treatment, Greig): very short period

CCCCCCCC/C=C\CCCCCCCC(=O)O [oleic acid, reference compound]
Visual EB ([1]; 125 μM, 180 min): -
opening of the BBB [4]: reversibly open the BBB

CCCC(CCC)C(=O)O [valproic acid]
membrane disordering [5]: membrane disordering potency
